# Measured values from patent publication US20100261723A1, “TRISUBSTITUTED PYRIMIDINE DERIVATIVES FOR THE TREATMENT OF PROLIFERATIVE DISEASES” (ASTRAZENECA AB, priority 2007, published 2010).
# Target: T1, mTOR kinase (Homo sapiens, UniProt P42345)
# T1 construct: FLAG; made in house
# Assay: In vitro mTOR kinase assay, Test (a)(i) (AlphaScreen)
# Type: biochemical
# Conditions: recombinant FLAG-tagged mTOR (1362-2549), ATP 20 μM; read-out: Test (a)(i) IC50
# Procedure: (a)(i) In Vitro mTOR Kinase Assay
# A C-terminal truncation of mTOR encompassing amino acid residues 1362 to 2549 of mTOR (EMBL Accession No. L34075) was stably expressed as a FLAG-tagged fusion in HEK293 cells as described by Vilella-Bach et al., […], 1999, 274, 4266-4272. The HEK293 FLAG-tagged mTOR (1362-2549) stable cell line was routinely maintained at 37° C. with 5% CO2 up to a confluency of 70-90% in Dulbecco's modified Eagle's growth medium (DMEM; Invitrogen Limited, Paisley, UK Catalogue No. 41966-029) containing 10% heat-inactivated foetal calf serum (FCS; Sigma, Poole, Dorset, UK, Catalogue No. F0392), 1% L-glutamine (Gibco, Catalogue No. 25030-024) and 2 mg/ml Geneticin (G418 sulfate; Invitrogen Limited, UK Catalogue No. 10131-027). Following expression in the mammalian HEK293 cell line, expressed protein was purified using the FLAG epitope tag using standard purification techniques.
# A 30 μl mixture of recombinant purified mTOR enzyme, 1 μM biotinylated peptide substrate (Biotin-Ahx-[…]NH2; Bachem UK Ltd), ATP (20 μM) and a buffer solution [comprising Tris-HCl pH7.4 buffer (50 mM), EGTA (0.1 mM), bovine serum albumin (0.5 mg/mL), DTT (1.25 mM) and manganese chloride (10 mM)] was agitated at room temperature for 90 minutes.
# These assay solutions were incubated for 2 hours at room temperature.
# Phosphorylated biotinylated peptide is formed in situ as a result of mTOR mediated phosphorylation. The phosphorylated biotinylated peptide that is associated with AlphaScreen Streptavidin donor beads forms a complex with the p70 S6 Kinase (T389) 1A5 Monoclonal Antibody that is associated with Alphascreen Protein A acceptor beads. […] Accordingly, the presence of mTOR kinase activity results in an assay signal. In the presence of an mTOR kinase inhibitor, signal strength is reduced.
# T1 sequence (P42345 1362-2549): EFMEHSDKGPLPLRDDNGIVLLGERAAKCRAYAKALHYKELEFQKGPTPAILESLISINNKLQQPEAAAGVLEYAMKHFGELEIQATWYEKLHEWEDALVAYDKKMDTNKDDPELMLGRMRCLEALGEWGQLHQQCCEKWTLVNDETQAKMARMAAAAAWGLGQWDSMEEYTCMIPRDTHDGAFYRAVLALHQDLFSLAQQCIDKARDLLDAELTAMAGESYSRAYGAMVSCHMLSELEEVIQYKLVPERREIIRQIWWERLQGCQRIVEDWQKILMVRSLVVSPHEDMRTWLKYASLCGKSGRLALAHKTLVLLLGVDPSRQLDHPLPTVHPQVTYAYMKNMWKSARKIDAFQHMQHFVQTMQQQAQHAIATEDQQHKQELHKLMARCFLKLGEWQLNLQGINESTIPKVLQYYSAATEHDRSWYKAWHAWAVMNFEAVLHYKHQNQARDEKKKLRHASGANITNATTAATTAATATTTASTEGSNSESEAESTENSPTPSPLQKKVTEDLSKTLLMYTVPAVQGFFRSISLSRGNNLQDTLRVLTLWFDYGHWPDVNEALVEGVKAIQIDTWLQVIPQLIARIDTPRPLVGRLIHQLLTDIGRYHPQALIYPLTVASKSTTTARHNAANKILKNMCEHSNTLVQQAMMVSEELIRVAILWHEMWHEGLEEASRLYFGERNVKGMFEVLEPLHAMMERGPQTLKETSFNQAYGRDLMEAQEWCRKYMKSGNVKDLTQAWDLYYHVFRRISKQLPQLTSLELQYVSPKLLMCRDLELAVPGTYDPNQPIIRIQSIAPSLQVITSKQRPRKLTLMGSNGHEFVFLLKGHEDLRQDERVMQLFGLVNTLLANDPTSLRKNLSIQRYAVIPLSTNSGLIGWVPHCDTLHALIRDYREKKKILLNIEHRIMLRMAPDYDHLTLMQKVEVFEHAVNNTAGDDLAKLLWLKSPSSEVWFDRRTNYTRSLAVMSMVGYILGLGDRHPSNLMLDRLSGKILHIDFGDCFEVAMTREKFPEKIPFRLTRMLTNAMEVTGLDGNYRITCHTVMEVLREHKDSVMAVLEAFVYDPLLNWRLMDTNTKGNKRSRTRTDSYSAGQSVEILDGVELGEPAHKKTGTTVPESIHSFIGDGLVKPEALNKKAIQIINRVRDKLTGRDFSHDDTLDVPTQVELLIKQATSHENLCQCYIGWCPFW
row,SMILES,IC50
1,"C[C@H]1COCCN1c1cc(CS(C)(=O)=O)nc(-c2ccc(NC(=O)c3ccno3)cc2)n1 [Example 2, N-[4-[4-[(3S)-3-Methylmorpholin-4-yl]-6-(methylsulfonylmethyl)pyrimidin-2-yl]phenyl]-1,2-oxazole-5-carboxamide]",90.9 nM
2,"CC(=O)Nc1ccc(-c2nc(CS(C)(=O)=O)cc(N3CCOCC3)n2)cc1 [Example 4, N-[4-[4-(Methylsulfonylmethyl)-6-morpholin-4-yl-pyrimidin-2-yl]phenyl]acetamide]",930 nM
3,"CS(=O)(=O)Cc1cc(N2CCOCC2)nc(-c2ccc(NC(=O)c3ccccc3)cc2)n1 [Example 4a, N-[4-[4-(methylsulfonylmethyl)-6-morpholin-4-yl-pyrimidin-2-yl]phenyl]benzamide]",15300 nM
4,"CS(=O)(=O)Cc1cc(N2CCOCC2)nc(-c2ccc(NC(=O)C3CCC3)cc2)n1 [Example 5, N-[4-[4-(Methylsulfonylmethyl)-6-morpholin-4-yl-pyrimidin-2-yl]phenyl]cyclobutanecarboxamide]",1170 nM
5,"CCC(=O)Nc1ccc(-c2nc(CS(C)(=O)=O)cc(N3CCOCC3)n2)cc1 [Example 5a, N-[4-[4-(methylsulfonylmethyl)-6-morpholin-4-yl-pyrimidin-2-yl]phenyl]propanamide]",648 nM
6,"CS(=O)(=O)Cc1cc(N2CCOCC2)nc(-c2ccc(NC(=O)C3(C(N)=O)CC3)cc2)n1 [Example 5ab, N′-[4-[4-(methylsulfonylmethyl)-6-morpholin-4-yl-pyrimidin-2-yl]phenyl]cyclopropane-1,1-dicarboxamide]",6590 nM
7,"CC(=O)NCCC(=O)Nc1ccc(-c2nc(CS(C)(=O)=O)cc(N3CCOCC3)n2)cc1 [Example 5ad, 3-acetamido-N-[4-[4-(methylsulfonylmethyl)-6-morpholin-4-yl-pyrimidin-2-yl]phenyl]propanamide]",3990 nM
8,"CS(=O)(=O)Cc1cc(N2CCOCC2)nc(-c2ccc(NC(=O)c3cc[nH]n3)cc2)n1 [Example 5ae, N-[4-[4-(methylsulfonylmethyl)-6-morpholin-4-yl-pyrimidin-2-yl]phenyl]-1H-pyrazole-3-carboxamide]",1810 nM
9,"CS(=O)(=O)Cc1cc(N2CCOCC2)nc(-c2ccc(NC(=O)CN3CCCC3=O)cc2)n1 [Example 5aj, N-[4-[4-(methylsulfonylmethyl)-6-morpholin-4-yl-pyrimidin-2-yl]phenyl]-2-(2-oxopyrrolidin-1-yl)acetamide]",9700 nM
10,"Cc1ccn(CC(=O)Nc2ccc(-c3nc(CS(C)(=O)=O)cc(N4CCOCC4)n3)cc2)n1 [Example 5an, 2-(3-methylpyrazol-1-yl)-N-[4-[4-(methylsulfonylmethyl)-6-morpholin-4-yl-pyrimidin-2-yl]phenyl]acetamide]",29700 nM
11,"CS(=O)(=O)Cc1cc(N2CCOCC2)nc(-c2ccc(NC(=O)c3cncs3)cc2)n1 [Example 5ao, N-[4-[4-(methylsulfonylmethyl)-6-morpholin-4-yl-pyrimidin-2-yl]phenyl]-1,3-thiazole-5-carboxamide]",552 nM
12,"CO[C@H](C)C(=O)Nc1ccc(-c2nc(CS(C)(=O)=O)cc(N3CCOCC3)n2)cc1 [Example 5ap, (2R)-2-methoxy-N-[4-[4-(methylsulfonylmethyl)-6-morpholin-4-yl-pyrimidin-2-yl]phenyl]propanamide]",32600 nM
13,"CS(=O)(=O)Cc1cc(N2CCOCC2)nc(-c2ccc(NC(=O)c3csnn3)cc2)n1 [Example 5as, N-[4-[4-(methylsulfonylmethyl)-6-morpholin-4-yl-pyrimidin-2-yl]phenyl]thiadiazole-4-carboxamide]",360 nM

# More lines, now with the values ahead:
row,IC50,SMILES
1,164 nM,"CC(=O)Nc1ccc(-c2nc(CS(C)(=O)=O)cc(N3CCOCC3)n2)cc1CO [Example 1, N-[2-(Hydroxymethyl)-4-[4-(methylsulfonylmethyl)-6-morpholin-4-yl-pyrimidin-2-yl]phenyl]acetamide]"
2,238 nM,"C[C@H]1COCCN1c1cc(CS(C)(=O)=O)nc(-c2ccc(NC(=O)CO)cc2)n1 [Example 3, 2-Hydroxy-N-[4-[4-[(3S)-3-methylmorpholin-4-yl]-6-(methylsulfonylmethyl)pyrimidin-2-yl]phenyl]acetamide]"
3,4990 nM,"CS(=O)(=O)Cc1cc(N2CCOCC2)nc(-c2ccc(NC(=O)CCC3CC3)cc2)n1 [Example 5aa, 3-cyclopropyl-N-[4-[4-(methylsulfonylmethyl)-6-morpholin-4-yl-pyrimidin-2-yl]phenyl]propanamide]"
4,5380 nM,"CS(=O)(=O)Cc1cc(N2CCOCC2)nc(-c2ccc(NC(=O)C3CCOCC3)cc2)n1 [Example 5ac, N-[4-[4-(methylsulfonylmethyl)-6-morpholin-4-yl-pyrimidin-2-yl]phenyl]oxane-4-carboxamide]"
5,10000 nM,"Cc1cc(C(=O)Nc2ccc(-c3nc(CS(C)(=O)=O)cc(N4CCOCC4)n3)cc2)n(C)n1 [Example 5af, 2,5-dimethyl-N-[4-[4-(methylsulfonylmethyl)-6-morpholin-4-yl-pyrimidin-2-yl]phenyl]pyrazole-3-carboxamide]"
6,2760 nM,"CS(=O)(=O)Cc1cc(N2CCOCC2)nc(-c2ccc(NC(=O)C3=COCCC3)cc2)n1 [Example 5ag, N-[4-[4-(methylsulfonylmethyl)-6-morpholin-4-yl-pyrimidin-2-yl]phenyl]-5,6-dihydro-4H-pyran-3-carboxamide]"
7,2750 nM,"CS(=O)(=O)Cc1cc(N2CCOCC2)nc(-c2ccc(NC(=O)CCc3c[nH]cn3)cc2)n1 [Example 5ah, 3-(1H-imidazol-4-yl)-N-[4[4-(methylsulfonylmethyl)-6-morpholin-4-yl-pyrimidin-2-yl]phenyl]propanamide]"
8,1640 nM,"CS(=O)(=O)Cc1cc(N2CCOCC2)nc(-c2ccc(NC(=O)Cc3ccco3)cc2)n1 [Example 5ai, 2-(2-furyl)-N-[4-[4-(methylsulfonylmethyl)-6-morpholin-4-yl-pyrimidin-2-yl]phenyl]acetamide]"
9,7790 nM,"CS(=O)(=O)Cc1cc(N2CCOCC2)nc(-c2ccc(NC(=O)Cc3ncccn3)cc2)n1 [Example 5ak, N-[4-[4-(methylsulfonylmethyl)-6-morpholin-4-yl-pyrimidin-2-yl]phenyl]-2-pyrimidin-2-yl-acetamide]"
10,3960 nM,"CC(C)(C(N)=O)C(=O)Nc1ccc(-c2nc(CS(C)(=O)=O)cc(N3CCOCC3)n2)cc1 [Example 5al, 2,2-dimethyl-N′-[4-[4-(methylsulfonylmethyl)-6-morpholin-4-yl-pyrimidin-2-yl]phenyl]propanediamide]"
11,9100 nM,"CS(=O)(=O)Cc1cc(N2CCOCC2)nc(-c2ccc(NC(=O)CN3CCOCC3)cc2)n1 [Example 5am, N-[4-[4-(methylsulfonylmethyl)-6-morpholin-4-yl-pyrimidin-2-yl]phenyl]-2-morpholin-4-yl-acetamide]"
12,609 nM,"CS(=O)(=O)Cc1cc(N2CCOCC2)nc(-c2ccc(NC(=O)CC(F)(F)F)cc2)n1 [Example 5aq, 3,3,3-trifluoro-N-[4-[4-(methylsulfonylmethyl)-6-morpholin-4-yl-pyrimidin-2-yl]phenyl]propanamide]"
13,1070 nM,"CS(=O)(=O)Cc1cc(N2CCOCC2)nc(-c2ccc(NC(=O)C(F)F)cc2)n1 [Example 5ar, 2,2-difluoro-N-[4-[4-(methylsulfonylmethyl)-6-morpholin-4-yl-pyrimidin-2-yl]phenyl]acetamide]"
